Assay results taken from the kinase profiling compilation of Christmann-Franck et al. (2016).
One block for each compound: values may come before it.

Experiments:
Test in all cases: radiometric filter-binding kinase assay
EEF2K (human) = EEF2K (human) (UniProt O00418)
MAPK10 (human) = MAPK10 (human) (UniProt P53779)
PHKG1 (human) = PHKG1 (human) (UniProt Q16816)
MINK1 (human) = MINK1 (human) (UniProt Q8N4C8)
FLT1 (human) = FLT1 (human) (UniProt P17948)
PRKACA (human) = PRKACA (human) (UniProt P17612)
[1] = system: PAK2 (human), Q13177 [T402E]
DYRK2 (human) = DYRK2 (human) (UniProt Q92630)
GCK (human) = GCK (human) (UniProt Q12851)
AURKA (human) = AURKA (human) (UniProt O14965)
MAPK15 (human) = MAPK15 (human) (UniProt Q8TD08)
CDK2 CCNA2 (human) = CDK2 CCNA2 (human) (UniProt P20248+P24941)
PIM3 (human) = PIM3 (human) (UniProt Q86V86)
[2] = system: SGK1 (human), O00141 [S422D]
MAPKAPK5 (human) = MAPKAPK5 (human) (UniProt Q8IW41)
EPHA2 (human) = EPHA2 (human) (UniProt P29317)
Chain of EPHA2 (human) (P29317 whole entry, looked up): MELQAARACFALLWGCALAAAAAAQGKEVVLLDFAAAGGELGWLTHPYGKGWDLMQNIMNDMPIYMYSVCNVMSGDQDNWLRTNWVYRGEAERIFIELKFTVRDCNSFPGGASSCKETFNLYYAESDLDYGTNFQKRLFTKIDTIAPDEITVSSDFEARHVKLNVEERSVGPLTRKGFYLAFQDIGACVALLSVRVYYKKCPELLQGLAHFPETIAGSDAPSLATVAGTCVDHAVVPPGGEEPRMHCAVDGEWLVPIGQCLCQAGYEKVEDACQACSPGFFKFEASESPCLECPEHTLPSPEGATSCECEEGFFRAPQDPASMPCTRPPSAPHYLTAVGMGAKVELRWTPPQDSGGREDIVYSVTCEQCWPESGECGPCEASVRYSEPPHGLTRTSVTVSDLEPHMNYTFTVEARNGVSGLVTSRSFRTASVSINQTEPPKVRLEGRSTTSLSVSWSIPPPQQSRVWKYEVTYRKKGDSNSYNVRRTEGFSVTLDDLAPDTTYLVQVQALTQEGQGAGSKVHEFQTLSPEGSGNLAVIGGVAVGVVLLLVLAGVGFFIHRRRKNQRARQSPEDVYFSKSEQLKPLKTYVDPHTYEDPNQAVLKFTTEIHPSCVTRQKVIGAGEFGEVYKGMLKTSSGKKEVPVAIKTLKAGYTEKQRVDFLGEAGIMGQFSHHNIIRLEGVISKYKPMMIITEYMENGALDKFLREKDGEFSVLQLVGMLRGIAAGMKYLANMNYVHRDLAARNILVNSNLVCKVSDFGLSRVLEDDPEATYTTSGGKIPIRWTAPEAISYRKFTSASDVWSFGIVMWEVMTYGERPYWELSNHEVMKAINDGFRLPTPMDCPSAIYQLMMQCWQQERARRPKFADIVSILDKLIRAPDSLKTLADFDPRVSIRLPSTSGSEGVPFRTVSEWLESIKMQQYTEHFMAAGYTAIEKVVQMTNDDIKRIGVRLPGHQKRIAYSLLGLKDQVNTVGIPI

BRSK1 (human) = BRSK1 (human) (UniProt Q8TDC3)
MST4 (human) = MST4 (human) (UniProt Q9P289)
PIM2 (human) = PIM2 (human) (UniProt Q9P1W9)
AURKB (human) = AURKB (human) (UniProt Q96GD4)
Chain of AURKB (human) (Q96GD4 whole entry, looked up): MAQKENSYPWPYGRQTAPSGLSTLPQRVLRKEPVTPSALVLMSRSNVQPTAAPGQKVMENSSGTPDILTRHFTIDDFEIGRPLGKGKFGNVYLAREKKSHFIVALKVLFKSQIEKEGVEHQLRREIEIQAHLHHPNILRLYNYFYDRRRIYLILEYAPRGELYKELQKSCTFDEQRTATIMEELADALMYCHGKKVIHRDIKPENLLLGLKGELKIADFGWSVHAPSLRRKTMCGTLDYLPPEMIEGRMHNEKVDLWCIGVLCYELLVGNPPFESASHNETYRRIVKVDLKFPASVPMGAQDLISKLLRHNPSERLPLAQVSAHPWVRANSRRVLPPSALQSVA

SRPK1 (human) = SRPK1 (human) (UniProt Q96SB4)
CHEK1 (human) = CHEK1 (human) (UniProt O14757)
Chain of CHEK1 (human) (O14757 whole entry, looked up): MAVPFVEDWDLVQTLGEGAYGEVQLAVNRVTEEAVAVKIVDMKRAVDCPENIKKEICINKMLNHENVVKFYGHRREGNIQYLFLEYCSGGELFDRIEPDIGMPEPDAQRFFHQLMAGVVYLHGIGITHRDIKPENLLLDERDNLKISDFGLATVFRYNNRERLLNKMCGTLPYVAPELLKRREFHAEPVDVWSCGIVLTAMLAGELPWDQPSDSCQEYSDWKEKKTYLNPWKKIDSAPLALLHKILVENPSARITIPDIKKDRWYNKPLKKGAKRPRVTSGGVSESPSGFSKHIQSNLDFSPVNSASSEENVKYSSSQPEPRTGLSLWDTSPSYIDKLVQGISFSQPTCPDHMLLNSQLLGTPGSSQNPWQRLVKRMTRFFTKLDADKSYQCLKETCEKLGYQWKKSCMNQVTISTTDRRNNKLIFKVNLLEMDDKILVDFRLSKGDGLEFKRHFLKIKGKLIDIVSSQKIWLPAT

RPS6KA3 KD1 KD2 (human) = RPS6KA3 KD1 KD2 (human) (UniProt P51812)
RIPK2 (human) = RIPK2 (human) (UniProt O43353)
FGFR1 (human) = FGFR1 (human) (UniProt P11362)
Chain of FGFR1 (human) (P11362 whole entry, looked up): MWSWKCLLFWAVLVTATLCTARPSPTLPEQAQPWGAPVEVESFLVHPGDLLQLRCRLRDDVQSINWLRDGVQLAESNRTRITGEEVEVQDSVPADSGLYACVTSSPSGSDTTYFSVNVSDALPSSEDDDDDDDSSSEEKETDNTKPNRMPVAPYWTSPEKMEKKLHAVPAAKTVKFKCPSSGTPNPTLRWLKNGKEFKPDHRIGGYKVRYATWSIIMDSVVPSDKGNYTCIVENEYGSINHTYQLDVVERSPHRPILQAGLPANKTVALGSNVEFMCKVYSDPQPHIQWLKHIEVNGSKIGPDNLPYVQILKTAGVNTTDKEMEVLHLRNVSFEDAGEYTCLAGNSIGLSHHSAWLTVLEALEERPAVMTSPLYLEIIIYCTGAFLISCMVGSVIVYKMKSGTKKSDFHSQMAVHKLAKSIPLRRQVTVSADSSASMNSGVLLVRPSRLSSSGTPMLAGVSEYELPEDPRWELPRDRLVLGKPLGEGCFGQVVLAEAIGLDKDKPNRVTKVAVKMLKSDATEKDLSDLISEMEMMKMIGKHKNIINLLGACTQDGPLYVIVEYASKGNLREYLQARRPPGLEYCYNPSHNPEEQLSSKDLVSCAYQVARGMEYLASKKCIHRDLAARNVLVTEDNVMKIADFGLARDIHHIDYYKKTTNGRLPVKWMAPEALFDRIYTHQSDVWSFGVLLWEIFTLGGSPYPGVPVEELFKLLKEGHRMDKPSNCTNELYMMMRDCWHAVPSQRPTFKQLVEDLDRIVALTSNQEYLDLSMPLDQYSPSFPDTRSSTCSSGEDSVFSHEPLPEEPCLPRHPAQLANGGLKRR

CSNK2A1 (human) = CSNK2A1 (human) (UniProt P68400)
MELK (human) = MELK (human) (UniProt Q14680)
MAPK12 (human) = MAPK12 (human) (UniProt P53778)
BTK (human) = BTK (human) (UniProt Q06187)
PRKCA (human) = PRKCA (human) (UniProt P17252)
INSRR (human) = INSRR (human) (UniProt P14616)
ERBB4 (human) = ERBB4 (human) (UniProt Q15303)
Chain of ERBB4 (human) (Q15303 whole entry, looked up): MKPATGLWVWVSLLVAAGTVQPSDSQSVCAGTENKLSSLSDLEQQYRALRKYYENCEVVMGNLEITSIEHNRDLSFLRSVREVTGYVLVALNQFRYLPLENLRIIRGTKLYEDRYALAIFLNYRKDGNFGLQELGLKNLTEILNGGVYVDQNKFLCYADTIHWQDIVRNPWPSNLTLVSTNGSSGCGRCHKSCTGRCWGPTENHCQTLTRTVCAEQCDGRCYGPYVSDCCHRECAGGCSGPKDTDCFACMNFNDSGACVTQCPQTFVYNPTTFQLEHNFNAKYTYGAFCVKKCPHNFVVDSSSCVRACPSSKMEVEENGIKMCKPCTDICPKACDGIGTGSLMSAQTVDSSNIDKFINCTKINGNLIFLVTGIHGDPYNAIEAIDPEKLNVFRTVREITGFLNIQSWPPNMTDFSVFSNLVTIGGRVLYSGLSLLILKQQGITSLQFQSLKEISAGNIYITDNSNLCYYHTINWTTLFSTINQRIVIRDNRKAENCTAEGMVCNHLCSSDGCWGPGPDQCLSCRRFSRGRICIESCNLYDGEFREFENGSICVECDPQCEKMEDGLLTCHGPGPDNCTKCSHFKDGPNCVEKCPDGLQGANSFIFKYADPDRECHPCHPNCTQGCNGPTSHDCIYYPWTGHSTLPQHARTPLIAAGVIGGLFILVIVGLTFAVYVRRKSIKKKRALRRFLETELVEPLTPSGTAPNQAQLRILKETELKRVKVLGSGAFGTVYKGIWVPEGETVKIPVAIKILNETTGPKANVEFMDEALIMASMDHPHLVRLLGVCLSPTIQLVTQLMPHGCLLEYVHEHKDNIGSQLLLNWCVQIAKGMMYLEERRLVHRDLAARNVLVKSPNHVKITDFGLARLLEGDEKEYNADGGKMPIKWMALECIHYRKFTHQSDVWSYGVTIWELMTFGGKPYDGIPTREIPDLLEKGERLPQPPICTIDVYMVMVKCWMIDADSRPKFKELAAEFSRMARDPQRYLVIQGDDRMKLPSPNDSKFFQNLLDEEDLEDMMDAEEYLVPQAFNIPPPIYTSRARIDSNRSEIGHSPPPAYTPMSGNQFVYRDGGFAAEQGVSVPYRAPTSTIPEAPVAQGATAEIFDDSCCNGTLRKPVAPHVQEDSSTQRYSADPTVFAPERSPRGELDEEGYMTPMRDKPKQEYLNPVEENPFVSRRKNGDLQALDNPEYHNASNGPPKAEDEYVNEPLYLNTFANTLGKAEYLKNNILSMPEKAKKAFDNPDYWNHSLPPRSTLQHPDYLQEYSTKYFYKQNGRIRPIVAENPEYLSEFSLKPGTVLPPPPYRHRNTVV

MAPKAPK3 (human) = MAPKAPK3 (human) (UniProt Q16644)
MAP2K6 (human) = MAP2K6 (human) (UniProt P52564); details: compound 0.1 µM
MAP2K2 (human) = MAP2K2 (human) (UniProt P36507); details: compound 0.1 µM

Chain of PHKG1 (human) (Q16816 whole entry, looked up): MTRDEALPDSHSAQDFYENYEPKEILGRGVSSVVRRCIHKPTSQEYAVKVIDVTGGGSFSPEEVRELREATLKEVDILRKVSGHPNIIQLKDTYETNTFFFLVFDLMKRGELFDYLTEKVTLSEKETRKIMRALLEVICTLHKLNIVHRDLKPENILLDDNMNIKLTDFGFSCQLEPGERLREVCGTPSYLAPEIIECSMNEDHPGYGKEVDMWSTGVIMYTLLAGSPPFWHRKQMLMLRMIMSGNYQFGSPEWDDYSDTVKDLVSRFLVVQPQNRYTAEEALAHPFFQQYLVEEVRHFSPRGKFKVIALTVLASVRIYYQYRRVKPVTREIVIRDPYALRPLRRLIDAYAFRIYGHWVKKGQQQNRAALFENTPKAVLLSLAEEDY
Chain of MAPK10 (human) (P53779 whole entry, looked up): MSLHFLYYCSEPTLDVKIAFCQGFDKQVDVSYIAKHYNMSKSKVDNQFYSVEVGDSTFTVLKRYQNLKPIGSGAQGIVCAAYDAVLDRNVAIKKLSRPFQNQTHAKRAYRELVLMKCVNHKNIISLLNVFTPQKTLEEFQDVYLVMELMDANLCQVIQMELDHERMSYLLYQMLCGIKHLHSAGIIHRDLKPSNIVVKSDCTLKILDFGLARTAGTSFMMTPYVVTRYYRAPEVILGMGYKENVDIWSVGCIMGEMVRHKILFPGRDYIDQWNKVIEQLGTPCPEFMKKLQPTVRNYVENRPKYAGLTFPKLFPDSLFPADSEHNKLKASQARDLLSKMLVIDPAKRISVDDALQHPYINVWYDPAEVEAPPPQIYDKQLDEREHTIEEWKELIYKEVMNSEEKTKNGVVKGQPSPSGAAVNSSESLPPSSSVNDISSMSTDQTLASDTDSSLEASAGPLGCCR

residual activity (EEF2K (human); compound 1.0 µM): 83% | residual activity (EEF2K (human); compound 10.0 µM): 75% | residual activity (MAPK10 (human); compound 1.0 µM): 99% | residual activity (MAPK10 (human); compound 10.0 µM): 110% | residual activity (PHKG1 (human); compound 1.0 µM): 103% | residual activity (PHKG1 (human); compound 10.0 µM): 97% | residual activity (MINK1 (human); compound 1.0 µM): 103% | residual activity (MINK1 (human); compound 10.0 µM): 99% | residual activity (FLT1 (human); compound 1.0 µM): 91% | residual activity (FLT1 (human); compound 10.0 µM): 88% | residual activity (PRKACA (human); compound 1.0 µM): 95% | residual activity (PRKACA (human); compound 10.0 µM): 93% | residual activity ([1]; compound 1.0 µM): 102% | residual activity ([1]; compound 10.0 µM): 94% | residual activity (DYRK2 (human); compound 1.0 µM): 105% | residual activity (DYRK2 (human); compound 10.0 µM): 107% | residual activity (GCK (human); compound 1.0 µM): 110% | residual activity (GCK (human); compound 10.0 µM): 89% | residual activity (AURKA (human); compound 1.0 µM): 101% | residual activity (AURKA (human); compound 10.0 µM): 102% | residual activity (CDK2 CCNA2 (human); compound 1.0 µM): 77% | residual activity (CDK2 CCNA2 (human); compound 10.0 µM): 93% | residual activity (PIM3 (human); compound 1.0 µM): 88% | residual activity (PIM3 (human); compound 10.0 µM): 85% | residual activity ([2]; compound 1.0 µM): 99% | residual activity ([2]; compound 10.0 µM): 98% | residual activity (MAPKAPK5 (human); compound 1.0 µM): 88% | residual activity (MAPKAPK5 (human); compound 10.0 µM): 87% | residual activity (EPHA2 (human); compound 1.0 µM): 102% | residual activity (EPHA2 (human); compound 10.0 µM): 96% | residual activity (BRSK1 (human); compound 1.0 µM): 101% | residual activity (BRSK1 (human); compound 10.0 µM): 103% | residual activity (MST4 (human); compound 1.0 µM): 103% | residual activity (MST4 (human); compound 10.0 µM): 112% | residual activity (PIM2 (human); compound 1.0 µM): 95% | residual activity (PIM2 (human); compound 10.0 µM): 105% | residual activity (AURKB (human); compound 1.0 µM): 104% | residual activity (AURKB (human); compound 10.0 µM): 106% | residual activity (SRPK1 (human); compound 1.0 µM): 93% | residual activity (SRPK1 (human); compound 10.0 µM): 89% | residual activity (CHEK1 (human); compound 1.0 µM): 109% | residual activity (CHEK1 (human); compound 10.0 µM): 103% | residual activity (RPS6KA3 KD1 KD2 (human); compound 1.0 µM): 91% | residual activity (RPS6KA3 KD1 KD2 (human); compound 10.0 µM): 92% | residual activity (RIPK2 (human); compound 10.0 µM): 112% | residual activity (FGFR1 (human); compound 1.0 µM): 93% | residual activity (FGFR1 (human); compound 10.0 µM): 100% | residual activity (CSNK2A1 (human); compound 1.0 µM): 95% | residual activity (CSNK2A1 (human); compound 10.0 µM): 87% | residual activity (MELK (human); compound 1.0 µM): 88% | residual activity (MELK (human); compound 10.0 µM): 89% | residual activity (MAPK12 (human); compound 1.0 µM): 111% | residual activity (MAPK12 (human); compound 10.0 µM): 101% | residual activity (BTK (human); compound 1.0 µM): 99% | residual activity (BTK (human); compound 10.0 µM): 89% | residual activity (PRKCA (human); compound 1.0 µM): 97% | residual activity (PRKCA (human); compound 10.0 µM): 96% | residual activity (INSRR (human); compound 1.0 µM): 81% | residual activity (INSRR (human); compound 10.0 µM): 87% | residual activity (ERBB4 (human); compound 1.0 µM): 109% | residual activity (ERBB4 (human); compound 10.0 µM): 104% | residual activity (MAPKAPK3 (human); compound 1.0 µM): 119% | residual activity (MAPKAPK3 (human); compound 10.0 µM): 114%
SMILES: CN1C(=O)[C@@H](Cc2c[nH]c3ccccc23)NC1=S
residual activity (MAPK15 (human); compound 1.0 µM): 98% | residual activity (MAPK15 (human); compound 10.0 µM): 103%

residual activity (EEF2K (human); compound 0.1 µM): 65% | residual activity (MAPK10 (human); compound 0.1 µM): 116% | residual activity (PHKG1 (human); compound 0.1 µM): 106% | residual activity (MAP2K6 (human)): 100% | residual activity (MINK1 (human); compound 0.1 µM): 90% | residual activity (FLT1 (human); compound 0.1 µM): 116% | residual activity (PRKACA (human); compound 0.1 µM): 105% | residual activity ([1]; compound 0.1 µM): 94% | residual activity (MAP2K2 (human)): 107% | residual activity (DYRK2 (human); compound 0.1 µM): 109% | residual activity (AURKA (human); compound 0.1 µM): 112% | residual activity (CDK2 CCNA2 (human); compound 0.1 µM): 96% | residual activity (PIM3 (human); compound 0.1 µM): 111% | residual activity ([2]; compound 0.1 µM): 112% | residual activity (EPHA2 (human); compound 0.1 µM): 55% | residual activity (BRSK1 (human); compound 0.1 µM): 94% | residual activity (MST4 (human); compound 0.1 µM): 104% | residual activity (PIM2 (human); compound 0.1 µM): 105% | residual activity (AURKB (human); compound 0.1 µM): 82% | residual activity (SRPK1 (human); compound 0.1 µM): 82% | residual activity (CHEK1 (human); compound 0.1 µM): 106% | residual activity (RIPK2 (human); compound 0.1 µM): 9% | residual activity (FGFR1 (human); compound 0.1 µM): 110% | residual activity (CSNK2A1 (human); compound 0.1 µM): 112% | residual activity (MELK (human); compound 0.1 µM): 106% | residual activity (MAPK12 (human); compound 0.1 µM): 94% | residual activity (BTK (human); compound 0.1 µM): 57% | residual activity (PRKCA (human); compound 0.1 µM): 100% | residual activity (INSRR (human); compound 0.1 µM): 123% | residual activity (ERBB4 (human); compound 0.1 µM): 67% | residual activity (MAPKAPK3 (human); compound 0.1 µM): 92%
SMILES: CN1CCN(CCOc2cc(OC3CCOCC3)c3c(Nc4c(Cl)ccc5c4OCO5)ncnc3c2)CC1
residual activity (MAPK15 (human); compound 0.1 µM): 134%
